Assays:
[1] = target: T1, Carbonic anhydrase 4 (Bos taurus, UniProt Q95323)
T1 sequence (Q95323 whole entry): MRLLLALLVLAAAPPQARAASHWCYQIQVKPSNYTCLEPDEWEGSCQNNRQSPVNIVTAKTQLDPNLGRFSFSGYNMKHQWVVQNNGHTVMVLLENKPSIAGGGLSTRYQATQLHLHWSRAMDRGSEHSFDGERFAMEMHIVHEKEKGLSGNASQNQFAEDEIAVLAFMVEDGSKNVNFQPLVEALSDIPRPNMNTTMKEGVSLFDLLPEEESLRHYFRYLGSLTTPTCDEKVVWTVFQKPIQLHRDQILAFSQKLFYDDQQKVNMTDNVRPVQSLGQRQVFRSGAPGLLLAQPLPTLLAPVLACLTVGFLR
Description: Inhibitory effect on bovine Carbonic anhydrase IV

[2] = target: Carbonic anhydrase 2 (Homo sapiens, UniProt P00918)
Description: Inhibitory effect on human Carbonic anhydrase II

[3] = target: Carbonic anhydrase 1 (Homo sapiens, UniProt P00915)
Description: Inhibitory effect on human carbonic anhydrase I

[4] = tested on: Mus musculus; test: Anticonvulsant activity in mice by MES test at 0.5 hr following intraperitoneal injection of 10 mg/kg dose; assay type: functional
[5] = organism: Mus musculus; test: MES test: number of mice treated / total number of mice at 2.0 h; assay type: functional
[6] = tested on: Mus musculus; test: Anticonvulsant activity in mice by MES test at 3.0 hr following intraperitoneal injection of 10 mg/kg dose; assay type: functional
[7] = organism: Mus musculus; test: MES test: number of mice treated / total number of mice 6.0 h; assay type: functional
[8] = organism: Mus musculus; test: MES test: number of mice treated / total number of mice at 1.0 h; assay type: functional
[9] = Activity in MES test with six to eight OFI male mice for each time at 30 mg/kg dose at 4.0 h; assay type: functional, Mus musculus
[10] = Activity in MES test with six to eight OFI male mice for each time at 30 mg/kg dose at 0.5 h; assay type: functional, Mus musculus
[11] = organism: Mus musculus; test: MES test: number of mice treated / total number of mice at 0.5 h; assay type: functional
[12] = tested on: Mus musculus; test: Anticonvulsant activity in mice by MES test at 3.0 hr following intraperitoneal injection of 30 mg/kg dose; assay type: functional
[13] = Activity in MES test with six to eight OFI male mice for each time at 30 mg/kg dose at 1.0 h; assay type: functional, Mus musculus
[14] = Activity in MES test with six to eight OFI male mice for each time at 30 mg/kg dose at 3.0 h; assay type: functional, Mus musculus
[15] = organism: Mus musculus; test: MES test: number of mice treated / total number of mice 4.0 h; assay type: functional
[16] = Activity in MES test with six to eight OFI male mice for each time at 30 mg/kg dose at 6.0 h; assay type: functional, Mus musculus
[17] = Activity in MES test with six to eight OFI male mice for each time at 30 mg/kg dose at 2.0 h; assay type: functional, Mus musculus
[18] = organism: Mus musculus; test: MES test: number of mice treated / total number of mice at 3.0 h; assay type: functional
[19] = tested on: Mus musculus; test: Anticonvulsant activity in mice by MES test at 0.5 hr following intraperitoneal injection of 30 mg/kg dose; assay type: functional
[20] = tested on: Mus musculus; test: Anticonvulsant activity in mice by MES test at 0.5 h following intraperitoneal injection of 30 mg/kg dose.; assay type: functional
[21] = tested on: Mus musculus; test: Anticonvulsant activity in mice by MES test at 3.0 hr following intraperitoneal injection of 30 mg/kg dose.; assay type: functional
[22] = tested on: Mus musculus; test: Anticonvulsant activity in mice by MES test at 3.0 hr following intraperitoneal injection of 10 mg/kg dose.; assay type: functional
[23] = tested on: Mus musculus; test: Anticonvulsant activity in mice by MES test at 0.5 hr following intraperitoneal injection of 10 mg/kg dose.; assay type: functional
[24] = tested on: Mus musculus; test: Anticonvulsant activity in mice by MES test at 3.0 h following intraperitoneal injection of 30 mg/kg dose; assay type: functional

Chain of Carbonic anhydrase 1 (P00915 whole entry): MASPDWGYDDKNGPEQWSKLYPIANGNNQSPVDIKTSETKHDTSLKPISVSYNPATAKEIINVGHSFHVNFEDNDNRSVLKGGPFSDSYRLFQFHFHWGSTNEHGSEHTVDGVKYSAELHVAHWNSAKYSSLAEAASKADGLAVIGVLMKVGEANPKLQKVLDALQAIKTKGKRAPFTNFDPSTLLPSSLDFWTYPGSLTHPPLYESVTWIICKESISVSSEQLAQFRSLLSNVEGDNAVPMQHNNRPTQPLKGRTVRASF

Row | Ki [1] [nM] | Ki [2] [nM] | Ki [3] [nM] | SMILES | Protected mice [21] [%] | other results
1 | 313 | 844 | 1300 | CCCC(CCC)C(=O)OCCc1ccc(S(N)(=O)=O)cc1 |  | 
2 | 25 | 6 | 50 | CCCC(CCC)C(=O)Nc1nnc(S(N)(=O)=O)s1 |  | Protected mice [4]: 25%; No. of mice [5]: 8; Protected mice [6]: 100%; No. of mice [7]: 5; No. of mice [8]: 6.5; Protected mice [9]: 50%; Protected mice [10]: 96%; No. of mice [11]: 7.5; Protected mice [12]: 93%; Protected mice [13]: 81%; Protected mice [14]: 93%; No. of mice [15]: 4; Protected mice [16]: 63%; Protected mice [17]: 100%; No. of mice [18]: 7; Protected mice [19]: 96%
3 | 130 | 9 | 460 | CC(C)(C)OC(=O)Nc1nnc(S(N)(=O)=O)s1 | 60 | Protected mice [20]: 75%
4 | 65 |  | 850 | NS(=O)(=O)c1nnc(NC(=O)C23C[C@H]4C[C@@H](C2)C[C@@H](C3)C4)s1 | 96 | Protected mice [20]: 83%; Protected mice [22]: 93%; Protected mice [23]: 25%
5 | 21 |  | 38 | NS(=O)(=O)c1nnc(NC(=O)c2ccccc2)s1 | 25 | Protected mice [20]: 83%
6 | 740 | 221 | 19000 | CCCC(CCC)C(=O)Nc1cccc(S(N)(=O)=O)c1 |  | 
7 | 133 | 70 | 800 | CCCC(CCC)C(=O)Nc1cc(Cl)c(S(N)(=O)=O)cc1S(N)(=O)=O |  | 
8 | 630 | 240 | 22500 | CCCC(CCC)C(=O)Nc1ccc(S(N)(=O)=O)cc1 |  | 
9 | 125 | 50 | 950 | CCCC(CCC)C(=O)Nc1ccc(S(N)(=O)=O)cc1Cl |  | 
10 | 200 | 84 | 3500 | CCCC(CCC)C(=O)NCCc1ccc(S(N)(=O)=O)cc1 |  | 
11 | 54 |  |  | CC1(C)O[C@@H]2[C@@H](CO[C@@]3(COS(N)(=O)=O)OC(C)(C)O[C@@H]23)O1 [TOPIRAMATE] |  | Protected mice [4]: 62%; Protected mice [24]: 83%; Protected mice [6]: 50%; Protected mice [19]: 100%
12 | 950 | 300 | 35600 | CCCC(CCC)C(=O)NNc1ccc(S(N)(=O)=O)cc1 |  | 
13 |  |  |  | CC(=O)/N=c1/sc(S(N)(=O)=O)nn1C [METHAZOLAMIDE] | 100 | Protected mice [20]: 83%; Protected mice [22]: 88%; Protected mice [23]: 75%
14 | 110 | 45 | 1000 | CCCC(CCC)C(=O)Nc1ccc(S(N)(=O)=O)cc1F |  | 
15 | 333 | 115 | 1500 | CCCC(CCC)C(=O)OCc1ccc(S(N)(=O)=O)cc1 |  | 
16 | 46 |  | 110 | CC(C)(C)C(=O)Nc1nnc(S(N)(=O)=O)s1 | 100 | Protected mice [22]: 87%; Protected mice [23]: 44%; Protected mice [19]: 75%
17 | 51 | 10 | 900 | COc1cc(C(=O)Nc2nnc(S(N)(=O)=O)s2)cc(OC)c1OC | 67 | Protected mice [19]: 25%
18 | 76 | 9 | 360 | CCCC(CCC)C(=O)NCCC(=O)Nc1nnc(S(N)(=O)=O)s1 |  | 
19 | 120 | 1.2 | 260 | NS(=O)(=O)c1nnc(NC(=O)CCNS(=O)(=O)c2ccc(I)cc2)s1 |  | Protected mice [20]: 33%; Protected mice [12]: 25%
20 | 3 | 4 | 5 | Cc1ccc(S(=O)(=O)Nc2nnc(S(N)(=O)=O)s2)cc1 | 75 | Protected mice [22]: 62%; Protected mice [23]: 12%; Protected mice [19]: 92%
21 | 85 | 43 | 550 | CCCC(CCC)C(=O)Nc1ccc(S(N)(=O)=O)cc1I |  | 
22 | 210 | 96 | 3700 | CCCC(CCC)C(=O)NCc1ccc(S(N)(=O)=O)cc1 |  | 
23 | 49 | 36 | 600 | CCCC(CCC)C(=O)Nc1ccc(S(N)(=O)=O)cc1Br |  | 
24 | 13 | 7 | 50 | CCCC(CCC)C(=O)OCCOc1ccc2nc(S(N)(=O)=O)sc2c1 |  | 
25 | 15 | 7 | 50 | CCCC(CCC)C(=O)Oc1ccc2nc(S(N)(=O)=O)sc2c1 |  | 
26 | 42 | 10 | 70 | CCCC(CCC)C(=O)/N=c1/sc(S(N)(=O)=O)nn1C |  | 
27 | 950 | 255 | 23000 | CCCC(CCC)C(=O)Nc1ccccc1S(N)(=O)=O |  | 
28 | 155 | 26 | 970 | CCCC(CCC)C(=O)Nc1c(S(N)(=O)=O)cc(S(N)(=O)=O)c(Cl)c1Cl |  | 
29 | 16 | 7 | 62 | CCCC(CCC)C(=O)Nc1ccc2nc(S(N)(=O)=O)sc2c1 |  | 

Row | SMILES | Ki [1] [nM] | Ki [2] [nM] | Ki [3] [nM] | Protected mice [21] [%] | other results
30 | Cc1ccc(S(=O)(=O)NC(=O)Nc2nnc(S(N)(=O)=O)s2)cc1 | 12 | 4 | 3 | 33 | Protected mice [20]: 8%
31 | NS(=O)(=O)c1nnc(NS(=O)(=O)Cc2ccccc2)s1 | 6 | 5 | 7 | 38 | Protected mice [20]: 67%
32 | NS(=O)(=O)c1nnc(NS(=O)(=O)c2ccc(NC(=O)[C@@H]3C4C=CC(C4)C3C(=O)O)cc2)s1 (stereo partly drawn) | 4 | 1.5 | 5.5 | 33 | Protected mice [20]: 25%

Reference: ChEMBL document CHEMBL1135800, “Carbonic anhydrase inhibitors: anticonvulsant sulfonamides incorporating valproyl and other lipophilic moieties” (J Med Chem, 2002)
